Test results reported in PubChem BioAssay AID330 (DTP/NCI, 2004).
“And” between values parts separate entries of the source, which are not always exact repeats. Equal values may be shown once. Toxic doses and inconclusive results are not listed. The calls were made as follows: active = survival T/C of 150% or more; inactive = T/C below 125% in these data.

Test system: P388 leukemia ip, CD2F1 mice, survival T/C
Assay: NCI In Vivo Anticancer Drug Screen. Data for tumor model P388 Leukemia (intraperitoneal) in CD2F1 (CDF1) mice
Conditions: endpoint: median survival time, higher = longer survival
Outline: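 Mice carrying the transplanted tumor received test compound or vehicle. Survival was recorded in each group, and the value is the treated-group measurement divided by that of the vehicle-treated control group.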

[1] = dose: 15.0 mg/kg/injection, schedule: Q01DX005 (ip), vehicle: saline with Tween-80
[2] = dose: 30.0 mg/kg/injection, schedule: Q01DX005 (ip), vehicle: saline with Tween-80
[3] = dose: 60.0 mg/kg/injection, schedule: Q01DX005 (ip), vehicle: saline with Tween-80
[4] = dose: 120.0 mg/kg/injection, schedule: Q01DX005 (ip), vehicle: saline with Tween-80
[5] = dose: 50.0 mg/kg/injection, schedule: Q01DX009 (ip), vehicle: Klucel (hydroxypropylcellulose) (HPC)
[6] = dose: 100.0 mg/kg/injection, schedule: Q01DX009 (ip), vehicle: Klucel (hydroxypropylcellulose) (HPC)
[7] = dose: 200.0 mg/kg/injection, schedule: Q01DX009 (ip), vehicle: Klucel (hydroxypropylcellulose) (HPC)
[8] = dose: 240.0 mg/kg/injection, schedule: Q01DX005 (ip), vehicle: saline with Tween-80

Measured: T/C

[Cu+2].[O-]/N=C/c1cccc(O)c1[O-].[O-]/N=C/c1cccc(O)c1[O-]
inactive: dose: 3.75 mg/kg/injection, schedule: Q01DX005 (ip), vehicle: saline with Tween-80 98 % of control | dose: 7.5 mg/kg/injection, schedule: Q01DX005 (ip), vehicle: saline with Tween-80 100 % of control | [1] 99 % of control and 104 % of control | [2] 102 % of control | [3] 99 % of control | [4] 92 % of control

S=C1N(c2ccc(Cl)cc2)C2=C(N=Nc3cc(Cl)ccc3Cl)C(=Nc3ccccc3S2)N1c1ccccn1
inactive: [1] 100 % of control | [2] 110 % of control | [3] 106 % of control and 110 % of control

Cc1ccc(S(=O)(=O)NC(C)(COS(=O)(=O)c2ccc(C)cc2)COS(=O)(=O)c2ccc(C)cc2)cc1
inactive: [5] 95 % of control | [6] 96 % of control | [7] 96 % of control

Cc1nc2ccc(O)cc2c(C(=O)O)c1C(=O)O
inactive: dose: 50.0 mg/kg/injection, schedule: Q01DX005 (ip), vehicle: saline with Tween-80 100 % of control | dose: 100.0 mg/kg/injection, schedule: Q01DX005 (ip), vehicle: saline with Tween-80 96 % of control | dose: 200.0 mg/kg/injection, schedule: Q01DX005 (ip), vehicle: saline with Tween-80 104 % of control

CN(C)c1ccc(C(=C2C=CC(=Nc3ccccc3)c3ccccc32)c2ccc(N(C)C)cc2)cc1
inactive: dose: 3.12 mg/kg/injection, schedule: Q01DX005 (ip), vehicle: Klucel (hydroxypropylcellulose) (HPC) 100 % of control and 101 % of control | dose: 6.25 mg/kg/injection, schedule: Q01DX005 (ip), vehicle: Klucel (hydroxypropylcellulose) (HPC) 100 % of control and 104 % of control and 112 % of control | dose: 12.5 mg/kg/injection, schedule: Q01DX005 (ip), vehicle: Klucel (hydroxypropylcellulose) (HPC) 111 % of control and 114 % of control and 120 % of control | dose: 25.0 mg/kg/injection, schedule: Q01DX005 (ip), vehicle: Klucel (hydroxypropylcellulose) (HPC) 115 % of control and 118 % of control

C=NC1C=CCC=C1
inactive: dose: 100.0 mg/kg/injection, schedule: Q04DX002 (ip), vehicle: saline with Tween-80 112 % of control | dose: 200.0 mg/kg/injection, schedule: Q04DX002 (ip), vehicle: saline with Tween-80 91 % of control

CSC(=S)NN=C(c1ccccc1)c1ccccc1
inactive: dose: 0.78 mg/kg/injection, schedule: Q01DX009 (ip), vehicle: saline 102 % of control | dose: 1.56 mg/kg/injection, schedule: Q01DX009 (ip), vehicle: saline 102 % of control | dose: 3.12 mg/kg/injection, schedule: Q01DX009 (ip), vehicle: saline 100 % of control | dose: 100.0 mg/kg/injection, schedule: Q01DX009 (ip), vehicle: saline 113 % of control | dose: 200.0 mg/kg/injection, schedule: Q01DX009 (ip), vehicle: saline 96 % of control

CCOC(=O)/C(C#N)=C(\C)c1ccc(O)c(OC)c1
inactive: [3] 100 % of control | [4] 101 % of control | [8] 95 % of control

CC(=O)OC1OC(C[Se][As](C)C)C(OC(C)=O)C(OC(C)=O)C1OC(C)=O (centres undefined)
inactive: [5] 107 % of control | [6] 120 % of control | [7] 114 % of control

O=C(O)c1ccc2c(c1)S(=O)(=O)NC2=O
inactive: [3] 95 % of control | [4] 99 % of control | [8] 101 % of control

Cc1ccc2cccc(OC(=O)Nc3cc(Cl)c(Cl)cc3Cl)c2n1
inactive: [1] 100 % of control | [2] 93 % of control | [3] 93 % of control | [8] 94 % of control

CCOCc1cnc(C)nc1N
inactive: dose: 50.0 mg/kg/injection, schedule: Q01DX009 (ip), vehicle: saline with Tween-80 110 % of control | dose: 100.0 mg/kg/injection, schedule: Q01DX009 (ip), vehicle: saline with Tween-80 120 % of control | dose: 200.0 mg/kg/injection, schedule: Q01DX009 (ip), vehicle: saline with Tween-80 110 % of control

CC[CH2][Pb]([CH2]CC)([CH2]CC)[O]C(=O)C1CCCCC1
inactive: dose: 1.25 mg/kg/injection, schedule: Q01DX009 (ip), vehicle: saline with Tween-80 105 % of control and 97 % of control | dose: 2.5 mg/kg/injection, schedule: Q01DX009 (ip), vehicle: saline with Tween-80 111 % of control and 122 % of control | dose: 5.0 mg/kg/injection, schedule: Q01DX009 (ip), vehicle: saline with Tween-80 122 % of control | dose: 10.0 mg/kg/injection, schedule: Q01DX009 (ip), vehicle: saline with Tween-80 114 % of control

S=C(Nc1ccc(Cl)cc1)Nc1ncccn1
inactive: dose: 12.5 mg/kg/injection, schedule: Q01DX009 (ip), vehicle: Klucel (hydroxypropylcellulose) (HPC) 98 % of control | dose: 25.0 mg/kg/injection, schedule: Q01DX009 (ip), vehicle: Klucel (hydroxypropylcellulose) (HPC) 103 % of control | [5] 100 % of control and 97 % of control
